Assay results published in patent publication EP0346694A1, “Substituted 3-Aminosydnone imines, process for their preparation and their use” (CASSELLA Aktiengesellschaft, priority 1988, dated 1989).
Structures can show the parent of a compound that is named as a salt.

What follows are compounds tested on Spiralstreifen der Arteria pulmonalis des Meerschweinchens (assay: Relaxation of potassium-depolarised, CaCl₂-contracted spiral strips of guinea pig pulmonary artery (modified method of Godfraind and Kaba / Schüman et al)). Settings: Cavia porcellus; concentration inhibiting the contraction by 50 %; strips depolarised with 40 mmol/l Kalium in calcium-free Tyrode solution, contraction by 0,5 mmol/l CaCl₂; cumulative addition; mean of 4 to 6 strips; read-out: IC₅₀ (converted).
Type: cell-based, Meerschweinchen
Excerpt: Die pharmakologische Wirkung der verbindungen der Formel I wurde nach einer modifizierten Methode von Godfraind and Kaba (Arch.Int. Pharmacodyn. Ther. 196, (Suppl) 35 bis 49, 1972) und von Schüman et al (Naunyn-Schmiedeberg's Arch. Pharmacol. 289, 409 bis 418, 1975) ermittelt. Dabei werden Spiralstreifen der Arteria pulmonalis des Meerschweinchens nach Äquilibrierung in calciumfreier Tyrodelösung mit 40 mmol/l Kalium depolarisiert. Ein Zusatz von 0,5 mmol/l CaCl₂ löst dann eine Kontraktion aus. Die relaxierende Wirkung der Prüfsubstanz wird durch kumulative Zugabe in 1/2 log 10 abgestuften Konzentrationen ermittelt. Aus der Konzentrationswirkungskurve (Abszisse: -log mol/l Prüfsubstanz, Ordinate: % Hemmung der maximalen Kontraktion, Mittelwert von 4 bis 6 Gefäß-streifen) wird die Konzentration der Prüfsubstanz ermittelt, welche die Kontraktion um 50 % hemmt (= IC₅₀, mol/l). In der folgenden Tabelle sind die so erhaltenen IC₅₀-Werte angegeben. Wie der Vergleich mit dem IC₅₀-Wert 3·10⁻⁴ für die bekannte Verbindung Molsidomin (N-Ethoxycarbonyl-3-morpholino-sydnonimin), vgl. DE-B-16 95 897, ergibt, liegen die Werte für die Verbindungen der Formel I erheblich günstiger.
`CC1(C)COCCN1[n+]1cc([NH-])on1` [a, 3-(3.3-Dimethylmorpholin-4-yl)-sydnonimin-hydrochlorid] showed an IC50 of 1000 nM.
Compound `CC1(C)CCCCN1[n+]1cc([NH-])on1` [b, 3-(2.2-Dimethylpiperidin-1-yl)-sydnonimin-hydrochlorid] has an IC50 of 1000 nM.
With `CC(C)N1CCN([n+]2cc([NH-])on2)C(C)(C)C1` [c, 3-(4-Isopropyl-2.2-dimethyl-piperazin-1-yl)-sydnonimin-dihydrochlorid] the IC50 was 1000 nM.
Compound `CCOC(=O)[N-]c1c[n+](N2CCOCC2)no1` [d, N-Ethoxycarbonyl-3-morpholino-sydnonimin, reference compound] has an IC50 of 300000 nM.
